# Earlier results, collected in patent US20220241167A1, “PRODUCT FOR TREATING KERATINOUS FIBERS, CONTAINING SILANES OF SPECIFIC FORMULAE” (Henkel AG & Co. KGaA, priority 2019, published 2022).
# Details: for solubility in water: 25° C.
solubility in water (in words) (at 25° C.),SMILES,solubility in water
–,"O=S(=O)([O-])c1ccc(N=Nc2c(O)ccc3ccccc23)cc1.[Na+] [Acid Orange 7, sodium salt of 4-[(2-hydroxy-1-naphthyl)azo]benzene sulphonate]",more than 7 g/L
–,"Nc1cc(S(=O)(=O)[O-])cc2cc(S(=O)(=O)[O-])c(N=Nc3ccccc3)c(O)c12.[Na+].[Na+] [Acid Red 33, diantrium salt of 5-amino-4-hydroxy-3-(phenylazo)-naphthalene-2,7-disulphonate]",about 2.5 g/L
highly soluble in water,"O=C([O-])C1=NN(c2ccc(S(=O)(=O)[O-])cc2)C(=O)C1N=Nc1ccc(S(=O)(=O)[O-])cc1.[Na+].[Na+].[Na+] (stereo not drawn) [Acid Yellow 23, trisodium salt of 4,5-dihydro-5-oxo-1-(4-sulfophenyl)-4-((4-sulfophenyl)azo)-1H-pyrazole-3-carboxylic acid]",–
